Data published in patent publication US5545618A, “GLP-1 analogs useful for diabetes treatment” (priority 1993, dated 1996).
Read-outs that look alike come from different tables or passages of the source.

Columns and labels:
RIN 1046-38 cells = test system: RIN 1046-38 cells
Procedure: An additional test for potency of the compounds of the invention measures their ability to stimulate cAMP production in RIN 1046-38 cells. This assay can be conducted as follows:
On day 1, 5×10^5 RIN 1046-38 cells (Drucker, D. J., et al., Proc Natl Acad Sci USA (1987) 84:3434-3438) are seeded into individual wells of 6-well dishes with 2.5 mL M199 culture medium. On day 4, cells are re-fed with fresh medium and on day 5 the assay is performed. […] Assays are only performed on cell passage ≤24.
At time -60 min, monolayers are washed twice with 2.5 mL PBS, and medium is changed to 1.0 mL of DMEM medium plus 4.5 g/l glucose and 0.1% BSA (assay medium). At 0 time, medium is aspirated and fresh assay medium, 1.0 mL, containing test compound is added. Test compound is added in 50 ul volume of PBS plus 0.1% BSA; controls are added in vehicle alone. Incubation is continued for 0 to 60 min.
At termination, conditioned medium and monolayer are harvested to measure both extra- and intracellular cAMP content. For extracellular measurement, medium is removed and centrifuged to remove any cellular debris. For intracellular determination, after medium removal, 1.0 mL of ice cold 95% ethanol is added to monolayer. Cells are collected by scraping, lysed by two cycles of quick freeze/thawing using liquid N2, and cell debris then removed by centrifugation. Aliquots (1/40th well content) of conditioned medium and ethanol cell extract are measured in duplicate for cAMP levels using an RIA kit by the acetylated protocol.
Insulin secretion can also be measured by the method described by Holst, J. J., et al. FEBS Letters (1987) 211:169-174 (supra). Also useful as an assay for insulinotropic effect is the measurement of stimulation of adenylate cyclase in the RIN 1046-38 cell line. Drucker, D. J. et al., Proc Natl Acad Sci USA (1987) 84:3434-3438 (supra).

[1] = degradation in plasma by RP-HPLC; type: in vitro ADME; conditions: incubation in plasma for 60 minutes; also: key: +: degradation was not observed; -: was complete after this time
[2] = type: in vitro ADME
Procedure: Polyclonal antisera were raised in New Zealand White rabbits against a synthetic peptide fragment corresponding to residues 24 to 37 of GLP-1(7-37) using the method of Mosjoy, S. et al., J Biol Chem (1986) 261:11880-11889. Initial immunizations were into the inguinal lymph nodes and used Freund's complete adjuvant. Two subcutaneous boosts were performed at 1 week intervals after the initial immunization and used Freund's incomplete adjuvant. For a single immunization or boost 100 μg peptide and 100 μg methylated BSA dissolved in 0.3 mL phosphate-buffered saline (PBS) were emulsified with 0.9 mL adjuvant. Bleeds (50 mL) began at week 6 after the initial immunization and continued at 1 month intervals thereafter. Repeat boosts were performed as above when titers dropped noticeably from the level of the previous bleed.

Compound	ED50 nM Duplicate Assays (first value) (RIN 1046-38 cells)	ED50 nM Duplicate Assays (second value) (RIN 1046-38 cells)	Resistance to Degradation [1]	ED50 nM Duplicate Assays (first value) (RIN 1046-38 cells; cAMP stimulation in RIN 1046-38 cells, first of duplicate assays)	ED50 nM Duplicate Assays (second value) (RIN 1046-38 cells; cAMP stimulation in RIN 1046-38 cells, second of duplicate assays)	ability of recovered fragment to inhibit binding of radiolabeled GLP-1(7-37) to carboxy terminal-specific antibody [2]
CC[C@H](C)[C@H](NC(=O)[C@H](Cc1ccccc1)NC(=O)[C@H](CCC(=O)O)NC(=O)[C@H](CCCCN)NC(=O)[C@H](C)NC(=O)[C@H](C)NC(=O)[C@H](CCC(N)=O)NC(=O)CNC(=O)[C@H](CCC(=O)O)NC(=O)[C@H](CC(C)C)NC(=O)[C@H](Cc1ccc(O)cc1)NC(=O)[C@H](CO)NC(=O)[C@H](CO)NC(=O)[C@@H](NC(=O)[C@H](CC(=O)O)NC(=O)[C@H](CO)NC(=O)[C@@H](NC(=O)[C@H](Cc1ccccc1)NC(=O)[C@@H](NC(=O)CNC(=O)[C@@H](CC(=O)O)NC(=O)[C@H](C)NC(=O)[C@@H](N)Cc1c[nH]cn1)[C@@H](C)O)[C@@H](C)O)C(C)C)C(=O)N[C@@H](C)C(=O)N[C@@H](Cc1c[nH]c2ccccc12)C(=O)N[C@@H](CC(C)C)C(=O)N[C@H](C(=O)N[C@@H](CCCCN)C(=O)NCC(=O)N[C@@H](CCCNC(=N)N)C(=O)NCC(=O)O)C(C)C [(D^.dagger.)^9 -GLP-1(7-37)]	0.90 nM	0.90 nM	-			
GLP-1(7-37)				0.16 nM	0.25 nM	no diminution
